Reference: patent US4473578A, “β-Lactam antibiotics and their use” (Beecham Group Limited, priority 1979, dated 1984)
≈ marks a conversion by molar mass, not a printed value.

Legend:
Experiment in all cases: Antibacterial effectiveness in agar
Assay type in all cases: cell-based
[1] = tested on: Bacteroides fragilis 2118; settings: in agar; Bacteroides fragilis 2118; read-out: M.I.C.
Text: (§1) b. Antibacterial effectiveness of the compound of […]

Bacteroides fragilis B3 = settings: in agar; Bacteroides fragilis B3; read-out: M.I.C.
Text: as §1

[2] = tested on: Bacteroides fragilis BC16; settings: in agar; Bacteroides fragilis BC16; read-out: M.I.C.
Text: as §1

Bacteroides fragilis BC4 = settings: in agar; Bacteroides fragilis BC4; read-out: M.I.C.
Text: as §1

[3] = tested on: Bacteroides fragilis VP1 8249; settings: VP18249; in agar; Bacteroides fragilis VP1 8249; read-out: M.I.C.
Text: as §1

[4] = tested on: Bacteroides fragilis WS12; settings: in agar; Bacteroides fragilis WS12; read-out: M.I.C.
Text: as §1

Bacteroides fragilis WS1 = settings: in agar; Bacteroides fragilis WS1; read-out: M.I.C.
Text: as §1

[5] = tested on: Bacteroides fragilis WS41; settings: in agar; Bacteroides fragilis WS41; read-out: M.I.C.
Text: as §1

Citrobacter freundii W18 = settings: in agar; Citrobacter freundii W18; read-out: M.I.C.
Text: as §1

[6] = tested on: Enterbacter aerogenes NCTC 10006; settings: in agar; Enterbacter aerogenes NCTC 10006; read-out: M.I.C.
Text: as §1

[7] = tested on: Enterbacter aerogenes T660; settings: in agar; Enterbacter aerogenes T660; read-out: M.I.C.
Text: as §1

Escherichia coli 5 = settings: in agar; Escherichia coli 5; read-out: M.I.C.
Text: as §1

Escherichia coli Ba78R+ = settings: in agar; Escherichia coli Ba78R+; read-out: M.I.C.
Text: as §1

Escherichia coli E8 = settings: in agar; Escherichia coli E8; read-out: M.I.C.
Text: as §1

Escherichia coli E96R+ = tested on: Escherichia coli E96R+
Text: as §1

Escherichia coli JT1 = settings: in agar; Escherichia coli JT1; read-out: M.I.C.
Text: as §1

Escherichia coli JT414C+ = settings: in agar; Escherichia coli JT414C+; read-out: M.I.C.
Text: as §1

Escherichia coli JT4R+ = tested on: Escherichia coli JT4R+
Text: as §1

[8] = tested on: Escherichia coli NCTC 15418; settings: NCTC15418; in agar; Escherichia coli NCTC 15418; read-out: M.I.C.
Text: as §1

[9] = tested on: Klebsiella aerogenes R112; settings: in agar; Klebsiella aerogenes R112; read-out: M.I.C.
Text: as §1

[10] = tested on: Klebsiella aerogenes Va2R+; settings: in agar; Klebsiella aerogenes Va2R+; read-out: M.I.C.
Text: as §1

Proteus mirabilis 889 = settings: in agar; Proteus mirabilis 889; read-out: M.I.C.
Text: as §1

Proteus mirabilis T318 = settings: in agar; Proteus mirabilis T318; read-out: M.I.C.
Text: as §1

Proteus morganii I = settings: Morganella morganii; in agar; Proteus morganii I; read-out: M.I.C.
Text: as §1

Proteus morganii T361 = settings: Morganella morganii; in agar; Proteus morganii T361; read-out: M.I.C.
Text: as §1

[11] = tested on: Proteus vulgaris NCTC 4395; settings: NCTC4395; in agar; Proteus vulgaris NCTC 4395; read-out: M.I.C.
Text: as §1

Proteus vulgaris X = settings: in agar; Proteus vulgaris X; read-out: M.I.C.
Text: as §1

[12] = tested on: Pseudomonas aeruginosa Dalgleish; settings: in agar; Pseudomonas aeruginosa Dalgleish; read-out: M.I.C.
Text: as §1

[13] = tested on: Pseudomonas aeruginosa W975; settings: in agar; Pseudomonas aeruginosa W975; read-out: M.I.C.
Text: as §1

Serratia marcescens SM27 = settings: in agar; Serratia marcescens SM27; read-out: M.I.C.
Text: as §1

[14] = tested on: Serratia marcescens Wo146; settings: in agar; Serratia marcescens Wo146; read-out: M.I.C.
Text: as §1

[15] = tested on: Staphylococcus aureus ME9+; settings: in agar; Staphylococcus aureus ME9+; read-out: M.I.C.
Text: as §1

[16] = tested on: Staphylococcus aureus Smith; settings: in agar; Staphylococcus aureus Smith; read-out: M.I.C.
Text: as §1

[17] = tested on: Staphylococcus aureus T150+; settings: in agar; Staphylococcus aureus T150+; read-out: M.I.C.
Text: as §1

[18] = tested on: Staphylococcus aureus T67+; settings: in agar; Staphylococcus aureus T67+; read-out: M.I.C.
Text: as §1

[19] = tested on: Streptococcus faecalis C90; settings: Enterococcus faecalis; in agar; Streptococcus faecalis C90; read-out: M.I.C.
Text: as §1

[20] = tested on: Streptococcus faecalis T1101; settings: Enterococcus faecalis; in agar; Streptococcus faecalis T1101; read-out: M.I.C.
Text: as §1

For CC(=O)N/C=C/SC1=C(C(=O)O)N2C(=O)[C@@H]([C@H](C)OS(=O)(=O)O)[C@H]2C1 [MM 13902, reference compound], the MIC [1] was 0.2 µg/mL (≈ 0.51 µM), the MIC (Bacteroides fragilis B3) was 0.4 µg/mL (≈ 1.02 µM) and the MIC [2] was 1.6 µg/mL (≈ 4.08 µM). For the same molecule, the MIC (Bacteroides fragilis BC4) was 1.6 µg/mL (≈ 4.08 µM), the MIC [3] was 0.2 µg/mL (≈ 0.51 µM) and the MIC [4] was 0.2 µg/mL (≈ 0.51 µM). The MIC (Bacteroides fragilis WS1) was 6.2 µg/mL (≈ 15.8 µM), the MIC [5] was 0.4 µg/mL (≈ 1.02 µM) and the MIC (Citrobacter freundii W18) was 6.2 µg/mL (≈ 15.8 µM). For the same molecule, the MIC [6] was 0.4 µg/mL (≈ 1.02 µM), the MIC [7] was 0.4 µg/mL (≈ 1.02 µM) and the MIC (Escherichia coli 5) was ≤ 0.1 µg/mL. The MIC (Escherichia coli Ba78R+) was 0.8 µg/mL (≈ 2.04 µM), the MIC (Escherichia coli E8) was ≤ 0.1 µg/mL and the MIC (Escherichia coli E96R+) was 0.2 µg/mL (≈ 0.51 µM). The MIC (Escherichia coli JT1) was ≤ 0.1 µg/mL, the MIC (Escherichia coli JT414C+) was 0.4 µg/mL (≈ 1.02 µM) and the MIC (Escherichia coli JT4R+) was 1.6 µg/mL (≈ 4.08 µM). The MIC [8] was ≤ 0.1 µg/mL, the MIC [9] was 0.2 µg/mL (≈ 0.51 µM) and the MIC [10] was 6.2 µg/mL (≈ 15.8 µM). For the same molecule, the MIC (Proteus mirabilis 889) was 0.2 µg/mL (≈ 0.51 µM), the MIC (Proteus mirabilis T318) was ≤ 0.1 µg/mL and the MIC (Proteus morganii I) was 0.2 µg/mL (≈ 0.51 µM). The MIC (Proteus morganii T361) was 0.2 µg/mL (≈ 0.51 µM), the MIC [11] was 0.1 µg/mL (≈ 0.255 µM) and the MIC (Proteus vulgaris X) was 0.4 µg/mL (≈ 1.02 µM). The MIC [12] was 50 µg/mL (≈ 127 µM), the MIC [13] was 50 µg/mL (≈ 127 µM) and the MIC (Serratia marcescens SM27) was 1.6 µg/mL (≈ 4.08 µM). It also gave an MIC [14] of 3.1 µg/mL (≈ 7.9 µM), an MIC [15] of 3.1 µg/mL (≈ 7.9 µM) and an MIC [16] of 1.6 µg/mL (≈ 4.08 µM). The MIC [17] was 1.6 µg/mL (≈ 4.08 µM), the MIC [18] was 0.8 µg/mL (≈ 2.04 µM) and the MIC [19] was 6.2 µg/mL (≈ 15.8 µM). The MIC [20] was 6.2 µg/mL (≈ 15.8 µM).
